Test results published in US20060275744A1, “Modified human embryonic stem cells and methods of use to treat neuron-associated disorders” (THE TRUSTEES OF COLUMBIA UNIVERSITY IN THE CITY OF NEW YORK, priority 2004, published 2006).

Legend:
DJ-1 deficient ES cells = test: Toxin exposure of DJ-1 deficient versus heterozygous ES cells (MTT, Annexin V/PI FACS, PARP, DHR, protein carbonyls); assay type: cell-based, murine; settings: for sensitivity of DJ-1 deficient cells to toxin relative to heterozygous cells (cell viability, MTT): 15 hours exposure
Experimental: We generated cells deficient in DJ-1. cDNA for DJ-1 was PCR amplified from human liver cDNA (Clontech) and cloned into the expression vectors pET-28a (Novagen) or pcDNA3.1 (Invitrogen) using standard techniques. Flag-DJ-1 and all described mutants were generated by PCR-mediated mutagenesis. For protein carbonyl quantization (Bian et al. 2003), cells were plated (1.4×10^5 cells per well), grown for 24 hours, and then treated with 10 mM H2O2 as indicated. Cleared lysate ([…]) from each time point was added to 2 M HCl ([…]) with or without 10 mM DNPH and incubated for 1 h at 24° C. with shaking. Proteins were then TCA precipitated and resuspended in […] 6M Guanidinium Chloride. Absorbance was measured at 360 nm, and DNP-conjugated samples were normalized for protein concentration with the underivitized control samples. Undifferentiated ES cells were cultured using standard techniques (Abeliovich et al. 2000). SDIA differentiation of ES cultures was performed as described (Kawasaki et al. 2000) except that ES cells were plated at a density of 500 cells/cm^2 and cocultured with the MS5 mouse stromal cell line (Barberi et al. 2003). Transfections were performed using Lipofectamine 2000 (Life Technologies) for 18-36 hours as per the manufacturer's instructions (Staropoli et al. 2003). Primary cultures and infections were performed as described (Staropoli et al. 2003). A murine embryonic stem (ES) cell clone, F063A04, that harbors a retroviral insertion at the DJ-1 locus was obtained through the German Gene Trap Consortium (http://tikus.gsf.de) (Floss and Wurst 2002). The pT1ATGβgeo gene trap vector is present between exons 6 and 7 of the murine DJ-1 gene, as determined by cDNA sequencing of trapped transcripts and genomic analysis (FIG. 12A). This integration is predicted to disrupt the normal splicing of DJ-1, leading to the generation of a truncated protein that lacks the carboxy-terminal domain required for dimerization and stability. Of note, a mutation that encodes a similarly truncated protein (at the human DJ-1 exon 7 splice acceptor) has been described in a patient with early-onset PD (Hague et al. 2003).
To investigate the role of DJ-1 in the oxidative stress response in vivo, DJ-1-deficient homozygous mutant (‘knockout’) cells and DJ-1 heterozygote (‘control’) ES cell clones were analyzed for cell viability in the context of increasing concentrations of H2O2. ES cells plated in 96-well format (2.3×10^4 cells/well) were treated for 15 hours with H2O2 in ES media deficient in b-mercaptoethanol (Abeliovich et al. 2000). Cell viability (as a percent of untreated control) was determined by MTT assay in triplicate (Fezoui et al. 2000). Annexin V/Propidium Iodide (Molecular probes) staining was performed per the manufacturer's instructions. For dihydrorhodamine-123 staining (DHR, Molecular probes) (Walrand et al. 2003), cells were preincubated for 30 min with DHR ([…]), washed with PBS, then treated with H2O2 in ES media deficient in b-mercaptoethanol for 15 min at 37° C. The FACS analysis was performed using a FACSTAR sorter (Becton Dickinson). Dopamine uptake assays were performed essentially as described in Farrer et al. 1998. Reported values represent specific uptake from which non-specific uptake, determined in the presence of mazindol, was subtracted, and normalized for protein content (BCA kit, Pierce).
Heterozygous cells were used as controls because the ‘knockout’ subclones were derived from these. Cell viability was initially determined by MTT assay in triplicate (Fezoui et al. 2000). […] The increase in AV-positive cells implicated an apoptotic mechanism of cell death (FIG. 12F).
We quantified the accumulation of ROS in response to H2O2 treatment in mutant and heterozygous control cells using the ROS-sensitive fluorescent indicator dye dihydrorhodamine-123 (DHR) and FACS analysis. […]

[1] = tested on: DJ-1 deficient dopamine neurons; test: 6-OHDA exposure of ES-derived dopamine neuron cultures, dopamine uptake assay; assay type: cell-based, murine; settings: cultures at 9 DIV, 72 hours exposure
Source text: FIG. 14. DJ-1 Deficient ES Cultures Display Reduced Dopamine Neuron Production. (A) The SDIA coculture method. ES cells are cocultured with mouse stromal cells (MS5) in the absence of serum and LIF for 18 days in vitro (DIV). (B) Dopamine neuron production was quantified at 18 DIV by [^3H] dopamine uptake assay. DJ-1 deficient ES cultures were defective relative to heterozygous control cultures. (C-D) Neuron production was quantified by immunohistochemical analysis as a percent of Tuj1-positive colonies that express tyrosine hydroxylase (TH) or GAB A. Quantification of TH and GABA immunostaining was performed on all colonies in each of three independent wells. Colonies were scored as positive if any immunostained cells were present. […] (F) Kinetic analysis of dopamine neuron differentiation in DJ-1 deficient cultures (clone 32, solid square) and heterozygous controls (open circle) as quantified by dopamine uptake assay. […] Dopamine neurons were quantified by dopamine uptake assay. Data represent the means±SEM and were analyzed by ANOVA followed by Fisher's post-hoc test. *, p≦0.05.
To investigate the role of DJ-1 in the oxidative stress response in vivo, DJ-1-deficient homozygous mutant (‘knockout’) cells and DJ-1 heterozygote (‘control’) ES cell clones were analyzed for cell viability in the context of increasing concentrations of H2O2. […]

DY1 ES cells = test: Candidate soluble factors in EB or SDIA differentiation of DY1 ES cells; assay type: cell-based, mouse; settings: for eYFP fluorescence or DAT immunoreactivity: factors added at stages 4-5 of differentiation
Experimental: FIG. 11. Effect of different soluble factors on the differentiation of DY1 into dopamine neurons with the EB method. (A) eYFP fluorescence or (B) DAT immunoreactivity was quantified by fluorescent confocal microscopy, see text for details. Data represent the mean±SEM. All results were analyzed by ANOVA. The level of significance is indicated where * p≦0.05 and ** p≦0.005.
We used marked ES-derived ‘late’ dopamine neurons to analyze candidate soluble and cell-associated factors in the differentiation process. […] Briefly, DY1 ES cells were differentiated using EB or SDIA and candidate factors were added to the standard differentiation protocol at stages 4-5 of differentiation (Lee et al., 2000).
We have tested additional candidate factors that are implicated in the differentiation of dopamine neurons and other CNS neuron classes. For instance, the Notch pathway plays an inhibitory role in early neuronal fate determination in uncommitted proliferative cells including neuronal stem cells (Bixby et al., 2002), as well as inhibitory roles in later events such as neurite outgrowth (Berezovska et al., 1999) in hippocampal cells. […] Another multifunctional factor in the early and late determination of neurons is neuregulin, which inhibits neurogenesis early but subsequently plays a role promoting synapse formation at certain CNS and PNS synapses (Buonanno and Fischbach, 2001). Neuregulin1-β1 appears to have increased the propensity of ES cultures to differentiate into DAT-positive cells.

MM13 cells = test: GDNF and BDNF treatment of virally transduced MM13 cells, real-time rtPCR; assay type: cell-based, murine; settings: 10 ng/ml during EB stage 4
Experimental: FIG. 23. PitX3 and Nurr1 coordinately regulate extrinsic factor signaling pathways in EB-differentiated ES cultures. […] (B) PitX3 and Nurr1 co-overexpression expands cells that are sensitive to BDNF and GDNF treatment as quantified by rtPCR for the late marker DAT but not the early marker TH. […] Virally transduced MM13 cells were treated with GDNF and BDNF (both 10 ng/ml, from R&D system) during EB stage 4; real-time rtPCR levels are presented as a percentage of the value obtained double (Nurr1 and PitX3) transduction after normalization with β-actin.

Nurr1 + PitX3 = Nurr1 + PitX3 (Homo sapiens, UniProt P43354;O75364 P43354:1-598,O75364:1-302); test: EMSA; cooperative binding of Nurr1 and PitX3; settings: tags: reticulocyte lysate; also nuclear extracts of EB-differentiated ES cultures; annealed oligonucleotides with overhangs
Experimental: Electrophoretic mobility shift assays (EMSA) were performed using an EMSA kit (Novagen) as per the manufacturer's instructions with annealed oligonucleotides for wild-type human DAT promoter sequences (5′-GTCTACTGGATAAGAGCCCGAGGCCGAGGCTGAGACCG-3′ (SEQ ID NO:14) and 5′-CTCAGCCTCGGCCTCGGGCTCTTATCCAGTAGACAGGGT-3′ (SEQ ID NO:15)) or mutant human DAT promoter sequences (5′-GTCTACTGGATGGGAGCCCGATTCCGAGGCTGAGACCG-3′ (SEQ ID NO:16) and 5′-CTCAGCCTCGGAATCGGGCTCCCATCCAGTAGACAGGGT-3′ (SEQ ID NO:17)).

CC(=O)N[C@@H](CSC(=O)[C@]1([C@@H](O)C(C)C)NC(=O)[C@H](C)[C@@H]1O)C(=O)O [lactacystin]
sensitivity of DJ-1 deficient cells to toxin relative to heterozygous cells (cell viability, MTT) (DJ-1 deficient ES cells): sensitized

NCCc1cc(O)c(O)cc1O [6-OHDA, 6-hydroxydopamine]
sensitivity of DJ-1 deficient dopamine neurons to oxidative stress (dopamine uptake assay) [1]: increased sensitivity

tunicamycin
sensitivity of DJ-1 deficient cells to toxin relative to heterozygous cells (cell viability, MTT) (DJ-1 deficient ES cells): did not observe altered sensitivity

CN[C@@H]1C[C@H]2O[C@@](C)([C@@H]1OC)n1c3ccccc3c3c4c(c5c6ccccc6n2c5c31)C(=O)NC4 [staurosporine]
sensitivity of DJ-1 deficient cells to toxin relative to heterozygous cells (cell viability, MTT) (DJ-1 deficient ES cells): did not observe altered sensitivity

OO [H2O2, hydrogen peroxide]
accumulation of protein carbonyls (DJ-1 deficient ES cells): normal
protein carbonyl accumulation (DJ-1 deficient ES cells): robustly increased
initial ROS accumulation (DHR, FACS) (DJ-1 deficient ES cells; 15 minutes after stimulation, DJ-1 deficient versus heterozygous cells): unaltered
sensitivity of DJ-1 deficient cells to toxin relative to heterozygous cells (cell viability, MTT) (DJ-1 deficient ES cells): significantly greater toxicity in DJ-1 deficient cells
cleavage of Poly(ADP-ribose)polymerase-1 (PARP) (DJ-1 deficient ES cells; knockout cells): potentiated cleavage
cell death, Annexin V and propidium iodide FACS (DJ-1 deficient ES cells; knockout relative to heterozygous cells): increased cell death of knockout cells

Sonic Hedgehog
eYFP fluorescence or DAT immunoreactivity (DY1 ES cells): significant increase

Jagged: soluble receptor Jagged (R&D Systems) protein used to inhibit Notch signaling
terminally differentiated dopamine neurons (DY1 ES cells; inhibiting Notch signaling with soluble protein): significant increase

[Cl][Cu][Cl] [copper, CuCl2]
sensitivity of DJ-1 deficient cells to toxin relative to heterozygous cells (cell viability, MTT) (DJ-1 deficient ES cells): sensitized

C[C@@H]1C[C@@H]([C@H](O)CC2CC(=O)NC(=O)C2)C(=O)[C@@H](C)C1 [cycloheximide]
sensitivity of DJ-1 deficient cells to toxin relative to heterozygous cells (cell viability, MTT) (DJ-1 deficient ES cells): did not observe altered sensitivity

B1: BDNF: brain-derived neurotrophic factor, from R&D system (protein, UniProt P23560 19-247, looked up)
Neurotrophic factor BDNF …: APMKEANIRGQGGLAYPGVRTHGTLESVNGPKAGSRGLTSLADTFEHVIEELLDEDQKVRPNEENNKDADLYTSRVMLSSQVPLEPPLLFLLEEYKNYLDAANMSMRVRRHSDPARRGELSVCDSISEWVTAADKKTAVDMSGGTVTVLEKVPVSKGQLKQYFYETKCNPMGYTKEGCRGIDKRHWNSQCRTTQSYVRALTMDSKKRIGWRFIRIDTSCVCTLTIKRGR
expression of Nurr1 and PitX3 (MM13 cells): fails to induce

B2: FGF-8: fibroblast growth factor-8, candidate soluble factor added to ES differentiation (protein, UniProt P55075 23-233, looked up)
Fibroblast growth factor 8: QEGPGRGPALGRELASLFRAGREPQGVSQQHVREQSLVTDQLSRRLIRTYQLYSRTSGKHVQVLANKRINAMAEDGDPFAKLIVETDTFGSRVRVRGAETGLYICMNKKGKLIAKSNGKGKDCVFTEIVLENNYTALQNAKYEGWYMAFTRKGRPRKGSKTRQHQREVHFMKRLPRGHHTTEQSLRFEFLNYPPFTRSLRGSQRTWAPEPR
eYFP fluorescence or DAT immunoreactivity (DY1 ES cells): significant increase

B3: GDNF: glial cell-line-derived neurotrophic factor, from R&D system (protein, UniProt P39905 78-211, looked up)
Glial cell line-derived …: SPDKQMAVLPRRERNRQAAAANPENSRGKGRRGQRGKNRGCVLTAIHLNVTDLGLGYETKEELIFRYCSGSCDAAETTYDKILKNLSRNRRLVSDKVGQACCRPIAFDDDLSFLDDNLVYHILRKHSAKRCGCI
expression of Nurr1 and PitX3 (MM13 cells): fails to induce

B4: human DAT promoter wild-type EMSA oligo (dsDNA)
DNA 1: GTCTACTGGATAAGAGCCCGAGGCCGAGGCTGAGACCG
DNA 2: CTCAGCCTCGGCCTCGGGCTCTTATCCAGTAGACAGGGT
binding result (Nurr1 + PitX3): binds
